In patent US5688992A, “O-malonyltryrosyl compounds, O-malonyltryrosyl compound-containing peptides, and use thereof” (The United States of America as represented by the …, priority 1995, dated 1997):
pIC50: −log10 of the molar value. Where two headings read alike, the source gives them in different places. Values belong to the compound of their own block, whether it stands above or below them. Square brackets hold non-standard residues; d marks the D form. Peptide text beside a SMILES is read from it. * marks the point of attachment. F2Pmp = N[C@@H](Cc1ccc(C(F)(F)P(=O)(O)O)cc1)C(=O)O; pY = N[C@@H](Cc1ccc(OP(=O)(O)O)cc1)C(=O)O; L‑OMT = L-O-malonyltyrosine; X1 = O=C(O)C(C(=O)O)*

Legend:
[1] = biological target: T1, N-terminal SH-PTP2 SH2 domain (Homo sapiens, UniProt Q06124); conditions: X = pTyr or L-F2Pmp; previously reported (Xiao 1994); cited from earlier work
T1 sequence (Q06124 6-102 limits assumed): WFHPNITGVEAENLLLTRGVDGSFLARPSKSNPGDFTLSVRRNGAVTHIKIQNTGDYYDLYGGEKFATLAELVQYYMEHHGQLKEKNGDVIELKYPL

[2] = tested on: SH-PTP2 mediated mitogenic signaling in rat 1 fibroblasts; conditions: Xiao 1994; cited from earlier work
recombinant PTP 1B = biological target: T2, recombinant PTP 1B (Homo sapiens, UniProt P18031); assay: Insulin receptor dephosphorylation by recombinant PTP 1B; type: biochemical; conditions: 32P-labeled autophosphorylated insulin receptor as substrate; read-out: inhibition constant / IC50 against PTP 1B dephosphorylation of insulin receptor
T2 sequence (P18031 1-435): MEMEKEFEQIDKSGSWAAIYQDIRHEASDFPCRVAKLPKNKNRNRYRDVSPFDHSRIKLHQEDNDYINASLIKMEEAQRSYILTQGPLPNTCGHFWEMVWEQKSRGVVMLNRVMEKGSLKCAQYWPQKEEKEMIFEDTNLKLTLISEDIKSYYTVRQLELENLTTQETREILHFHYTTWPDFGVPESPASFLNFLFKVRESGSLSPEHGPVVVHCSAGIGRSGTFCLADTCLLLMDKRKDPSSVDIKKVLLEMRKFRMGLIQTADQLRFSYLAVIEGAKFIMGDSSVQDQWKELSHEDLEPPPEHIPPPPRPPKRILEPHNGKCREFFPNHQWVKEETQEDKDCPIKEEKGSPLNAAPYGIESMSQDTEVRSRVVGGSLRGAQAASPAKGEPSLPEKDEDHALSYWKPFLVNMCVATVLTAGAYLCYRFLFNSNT
Experimental: WGA-purified human insulin receptors were autophosphorylated with [γ-^32 P]ATP as previously described (Liotta, A.S., et al., J. Biol. Chem. 269:22996-23001 (1994)), and this ^32 P-labeled insulin receptor was used as substrate for the assay of PTP 1B activity, essentially following the method described by Burke et al. (Burke, T. R. Jr., Biochem, Biophys. Res. Commun. 204:129-134 (1994)). In brief, ^32 P-labeled autophosphorylated insulin receptors (10 μg/ml) were incubated with 0.5 μg/ml recombinant PTP 1B at 22° C. in a 100 μl reaction containing 50 mM HEPES, pH 7.5, 0.1 mg/ml BSA, 5 mM DTT, 5 mM EDTA, 0.05% Triton X-100, in the absence or presence of various peptides at the indicated concentrations. […] The ^32 P remaining in the 95 kDa insulin receptor β-subunit was quantified by Betagen counting of the fixed and dried gels.
The peptide Ac-D-A-D-E-OMT-L-amide (SEQ. ID. NO. 8) was then examined for inhibitor potency against PTB-1B dephosphorylation of phosphorylated insulin receptor. […] The ^32 P remaining in the 95 kDa insulin receptor β-subunit was quantified by Betagen counting of the fixed and dried gels. […]

[3] = biological target: C-terminal SH2 domain of PI 3-kinase p85 (Homo sapiens, UniProt P27986); assay: SH2 domain competition binding assay, PI 3-kinase p85 C-terminal SH2; conditions: X = L-OMT; GST/SH2 fusion vs [125I] IRS-1 pY628 phosphopeptide; read-out: IC50 ± S.E., p85 (C-terminal) SH2 domain
Experimental: (§1) Details of the […] domain competition assay are described by Piccione, E., et al., Biochemistry 32:3197-3202 (1993). Briefly, four distinct assays were used to determine relative SH2 domain affinities for pTyr analogues vs. high affinity phosphopeptide ligands. In each assay a glutathione S-transferase (GST)/SH2 domain fusion protein was paired with an appropriate high-affinity [^125 I]Bolton-Hunter radiolabeled phosphopeptide, and varying concentrations of unlabeled peptides were added as competitors. The C-terminal SH2 domain of PI 3-kinase p85 was paired with IRS-1pY628, GNGDpYMPMSPK (SEQ ID NO. 5) (See Piccione, E., et al., Biochemistry 32:3197-3202 (1993)), the Src SH2 domain was paired with hmt pY324, KEPQpYEEIPIYL (SEQ ID NO. 6) (See Payne, G., et al., Proc. Natl. Acad. Sci. USA 90:4902-4906 (1993), the PLCγ-C SH2 domain was paired with PDGF pY1021, DNDpYIIPLPDPK (SEQ ID NO. 7) (See Piccione, E., et al., Biochemistry 32:3197-3202 (1993)), and the Lck SH2 domain was paired with the hmTpY324 sequence similar to assays conducted on the Src SH2 domain. An underline denotes the position of the [^125 I]Bolton-Hunter modified lysine. […] Following centrifugation for 5 min at 12,000 g, supematant solutions were removed by aspiration and [^125 I]radioactivity associated with the unwashed pellets was determined with a γ-counter.

Src SH2 domain = biological target: T3, Src SH2 domain (Homo sapiens, UniProt P12931); assay: SH2 domain competition binding assay, Src SH2; conditions: X = L-OMT; GST/SH2 fusion vs [125I] hmT pY324 phosphopeptide; read-out: IC50 ± S.E., Src SH2 domain
T3 construct: the Src SH2 domain was paired with hmt pY324
Experimental: as §1

Grb2 SH2 domain = biological target: T4, Grb2 SH2 domain (Homo sapiens, UniProt P62993); assay: SH2 domain competition binding assay, Grb2 SH2
T4 construct: against the Grb2 SH2 domain construct

[4] = biological target: T1, N-terminal SH-PTP2 SH2 domain; assay: SH2 domain competition binding assay, SH-PTP2 N-terminal SH2; conditions: X = L-OMT; read-out: IC50 ± S.E., SH-PTP2 (N-terminal) SH2 domain

Compound: 10 (X = L-F2Pmp): Ac-L-N-X-I-D-L-D-L-V-amide with X = L-F2Pmp in place of L-OMT (Ac-LN[F2Pmp]IDLDLV-NH2; SMILES CC[C@H](C)[C@H](NC(=O)[C@H](Cc1ccc(C(F)(F)P(=O)(O)O)cc1)NC(=O)[C@H](CC(N)=O)NC(=O)[C@H](CC(C)C)NC(C)=O)C(=O)N[C@@H](CC(=O)O)C(=O)N[C@@H](CC(C)C)C(=O)N[C@@H](CC(=O)O)C(=O)N[C@@H](CC(C)C)C(=O)N[C@H](C(N)=O)C(C)C)
- pIC50 [1]: 4.64
- effect on SH-PTP2 mediated mitogenic signaling [2]: block SH-PTP2 mediated mitogenic signaling

Compound: 10 (X = pTyr): Ac-L-N-X-I-D-L-D-L-V-amide with X = pTyr in place of L-OMT (Ac-LN[pY]IDLDLV-NH2; SMILES CC[C@H](C)[C@H](NC(=O)[C@H](Cc1ccc(OP(=O)(O)O)cc1)NC(=O)[C@H](CC(N)=O)NC(=O)[C@H](CC(C)C)NC(C)=O)C(=O)N[C@@H](CC(=O)O)C(=O)N[C@@H](CC(C)C)C(=O)N[C@@H](CC(=O)O)C(=O)N[C@@H](CC(C)C)C(=O)N[C@H](C(N)=O)C(C)C)
- pIC50 [1]: 5.40

Compound: CC(=O)N[C@@H](CC(=O)O)C(=O)N[C@@H](C)C(=O)N[C@@H](CC(=O)O)C(=O)N[C@@H](CCC(=O)O)C(=O)N[C@@H](Cc1ccc(OC(C(=O)O)C(=O)O)cc1)C(=O)N[C@@H](CC(C)C)C(N)=O [Ac-D-A-D-E-OMT-L-amide, Ac-Asp-Ala-Asp-Glu-[L-OMT]-Leu-amide] (Ac-DADEY(X1)L-NH2)
- pIC50 (recombinant PTP 1B): ~5.00

Compound: Ac-Leu-Asn-[L-OMT]-Ile-Asp-Leu-Asp-Leu-Val-amide ({Ac-Leu-Asn-L‑OMT}-IDLDLV-NH2) [peptide no. 9]
- pIC50 [4]: 4.66

Further lines, results first:

- pIC50 [3]: 4.85
Compound: CSCC[C@H](NC(=O)[C@@H]1CCCN1C(=O)[C@@H](NC(=O)[C@H](Cc1ccc(OC(C(=O)O)C(=O)O)cc1)NC(=O)[C@H](CC(=O)O)NC(C)=O)C(C)C)C(=O)N[C@@H](CC(C)C)C(N)=O [peptide no. 6, Ac-Asp-[L-OMT]-Val-Pro-Met-Leu-amide] (Ac-DY(X1)VPML-NH2)

- pIC50 (Src SH2 domain): < 3.70
Compound: CC[C@H](C)[C@H](NC(=O)[C@H](CCC(=O)O)NC(=O)[C@H](CCC(=O)O)NC(=O)[C@H](Cc1ccc(OC(C(=O)O)C(=O)O)cc1)NC(=O)[C@H](CCC(N)=O)NC(C)=O)C(=O)N1CCC[C@H]1C(N)=O [peptide no. 7, Ac-Gln-[L-OMT]-Glu-Glu-Ile-Pro-amide] (Ac-QY(X1)EEIP-NH2)

- activity in Grb2 binding assay (Grb2 SH2 domain): essentially inactive
Compound: CC[C@H](C)[C@H](NC(=O)[C@H](CC(N)=O)NC(=O)[C@@H](NC(=O)[C@H](Cc1ccc(OC(C(=O)O)C(=O)O)cc1)NC(=O)[C@H](CC(N)=O)NC(C)=O)C(C)C)C(=O)N[C@@H](CCC(=O)O)C(N)=O [peptide no. 8, Ac-Asn-[L-OMT]-Val-Asn-Ile-Glu-amide] (Ac-NY(X1)VNIE-NH2)
